Data as given in the NIST ThermoML archive (doi:10.1021/je500275j).

Experiments:
[1] = refractive index (Na D-line) (dimensionless); settings: 293.15 K; 101.33 kPa; Liquid; Standard Abbe refractometry
[2] = for viscosity / mass density: 100 kPa, Liquid; for viscosity: Falling or rolling sphere viscometry; for mass density: Vibrating tube method
[3] = xn = mol fraction of the nth substance listed; settings: 100 kPa, Liquid; for viscosity: Falling or rolling sphere viscometry; for mass density: Vibrating tube method

C1CCC(C2CCCCC2)CC1 [1,1'-bicyclohexyl]
Settings | refractive index
[1] | 1.4787

[2]
Settings | mass density [kg/m3] | viscosity [mPa·s]
293.15 K | 886.39 | 4.017
298.15 K | 882.79 | 3.541
303.15 K | 879.19 | 3.145
308.15 K | 875.6 | 2.817
313.15 K | 872.01 | 2.54
318.15 K | 868.43 | 2.302

Settings | Normal melting temperature [°C]
[2], Crystal, DTA | 2.60

CC1CCCCC1 [methylcyclohexane]
Settings | refractive index
[1] | 1.4175

[2]
Settings | mass density [kg/m3] | viscosity [mPa·s]
293.15 K | 769.58 | 0.733
298.15 K | 765.23 | 0.687
303.15 K | 760.89 | 0.645
308.15 K | 756.53 | 0.608
313.15 K | 752.17 | 0.575
318.15 K | 747.78 | 0.545

CCCCC1CCCCC1 [butylcyclohexane] + C1CCC(C2CCCCC2)CC1
[3], x2 = 0
Settings | mass density [kg/m3] | viscosity [mPa·s]
293.15 K | 799.6 | 1.3
298.15 K | 795.85 | 1.198
303.15 K | 792.1 | 1.109
308.15 K | 788.33 | 1.03
313.15 K | 784.56 | 0.96
318.15 K | 780.78 | 0.898

CCCCC1CCCCC1 [butylcyclohexane]
Settings | refractive index
[1] | 1.4399

[2]
Settings | mass density [kg/m3] | viscosity [mPa·s]
293.15 K | 799.6 | 1.3
298.15 K | 795.85 | 1.198
303.15 K | 792.1 | 1.109
308.15 K | 788.33 | 1.03
313.15 K | 784.56 | 0.96
318.15 K | 780.78 | 0.898

CCC1CCCCC1 [ethylcyclohexane]
Settings | refractive index
[1] | 1.4275

[2]
Settings | mass density [kg/m3] | viscosity [mPa·s]
293.15 K | 788.23 | 0.851
298.15 K | 784.2 | 0.796
303.15 K | 780.16 | 0.748
308.15 K | 776.11 | 0.704
313.15 K | 772.04 | 0.665
318.15 K | 767.96 | 0.629

CC1CCCCC1 [methylcyclohexane] + C1CCC(C2CCCCC2)CC1
[3], x2 = 0
Settings | mass density [kg/m3] | viscosity [mPa·s]
293.15 K | 769.58 | 0.733
298.15 K | 765.23 | 0.687
303.15 K | 760.89 | 0.645
308.15 K | 756.53 | 0.608
313.15 K | 752.17 | 0.575
318.15 K | 747.78 | 0.545

C1CCC(C2CCCCC2)CC1 [1,1'-bicyclohexyl] + CCC1CCCCC1
[3], x1 = 1
Settings | mass density [kg/m3] | viscosity [mPa·s]
293.15 K | 886.39 | 4.017
298.15 K | 882.79 | 3.541
303.15 K | 879.19 | 3.145
308.15 K | 875.6 | 2.817
313.15 K | 872.01 | 2.54
318.15 K | 868.43 | 2.302
